The results in this text go back to PMC5377825, “Catalytic Determinants of Alkene Production by the Cytochrome P450 Peroxygenase OleTJE” (The Journal of Biological Chemistry, 2017).

Holding throughout (assay): UV-visible heme spectral titration
Holding throughout (format): binding

For experiment [1], the target named is T1, OleTJE (CYP152L1) (Jeotgalicoccus sp. ATCC 8456, UniProt E9NSU2).
T1 construct: gene JEM45_03820; full length, codon-optimized gene in modified pET15b, N-terminal polyhistidine tag with TEV site; tag kept for spectroscopy, cleaved for crystallography; expressed in E. coli C41 (DE3)
T1 sequence (E9NSU2 1-422): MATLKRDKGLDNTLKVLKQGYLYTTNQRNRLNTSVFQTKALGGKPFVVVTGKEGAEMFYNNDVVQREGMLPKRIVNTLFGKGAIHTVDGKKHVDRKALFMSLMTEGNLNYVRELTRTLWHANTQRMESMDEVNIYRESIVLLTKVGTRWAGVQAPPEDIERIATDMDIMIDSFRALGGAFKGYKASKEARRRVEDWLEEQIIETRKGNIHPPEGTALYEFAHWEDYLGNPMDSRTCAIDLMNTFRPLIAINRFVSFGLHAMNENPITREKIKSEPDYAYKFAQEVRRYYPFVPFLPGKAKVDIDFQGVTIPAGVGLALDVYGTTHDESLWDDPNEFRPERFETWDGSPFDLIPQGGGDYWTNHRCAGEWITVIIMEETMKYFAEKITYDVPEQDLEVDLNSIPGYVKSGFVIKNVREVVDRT
The source says:
(§1) UV-visible heme spectral titration on OleTJE (CYP152L1)

For experiment [2], the target named is T2, OleTJE (CYP152L1) (Jeotgalicoccus sp. ATCC 8456, UniProt E9NSU2, F79A).
T2 construct: gene JEM45_03820; full length, codon-optimized gene in modified pET15b, N-terminal polyhistidine tag with TEV site; tag kept for spectroscopy, cleaved for crystallography; expressed in E. coli C41 (DE3)
T2 sequence (E9NSU2 1-422 F79A): T1 sequence (E9NSU2 1-422) with F79A
Description: as §1

Experiment [3] addresses T3, OleTJE (CYP152L1) (Jeotgalicoccus sp. ATCC 8456, UniProt E9NSU2, F79W).
T3 construct: gene JEM45_03820; full length, codon-optimized gene in modified pET15b, N-terminal polyhistidine tag with TEV site; tag kept for spectroscopy, cleaved for crystallography; expressed in E. coli C41 (DE3)
T3 sequence (E9NSU2 1-422 F79W): T1 sequence (E9NSU2 1-422) with F79W
Description: as §1

Experiment [4] concerns the target T4, OleTJE (CYP152L1) (Jeotgalicoccus sp. ATCC 8456, UniProt E9NSU2, H85Q).
T4 construct: gene JEM45_03820; full length, codon-optimized gene in modified pET15b, N-terminal polyhistidine tag with TEV site; tag kept for spectroscopy, cleaved for crystallography; expressed in E. coli C41 (DE3)
T4 sequence (E9NSU2 1-422 H85Q): T1 sequence (E9NSU2 1-422) with H85Q
Description: as §1

The target of experiment [5] is T5, OleTJE (CYP152L1) (Jeotgalicoccus sp. ATCC 8456, UniProt E9NSU2, F79Y).
T5 construct: gene JEM45_03820; full length, codon-optimized gene in modified pET15b, N-terminal polyhistidine tag with TEV site; tag kept for spectroscopy, cleaved for crystallography; expressed in E. coli C41 (DE3)
T5 sequence (E9NSU2 1-422 F79Y): T1 sequence (E9NSU2 1-422) with F79Y
Description: as §1

The target in experiment [6] is T6, OleTJE (CYP152L1) (Jeotgalicoccus sp. ATCC 8456, UniProt E9NSU2, R245E).
T6 construct: gene JEM45_03820; full length, codon-optimized gene in modified pET15b, N-terminal polyhistidine tag with TEV site; tag kept for spectroscopy, cleaved for crystallography; expressed in E. coli C41 (DE3)
T6 sequence (E9NSU2 1-422 R245E): T1 sequence (E9NSU2 1-422) with R245E
The settings on record: read-out: Fatty acid Kd (HS) / C10:0.
Description: as §1

[7] abbreviates: read-out: Fatty acid Kd (HS) / C16:0.
[8] abbreviates: read-out: Fatty acid Kd (HS) / C18:0.
Where [9] appears, read: read-out: Fatty acid Kd (HS) / C14:0.
[10] abbreviates: read-out: Fatty acid Kd (HS) / C10:0.
Where [11] appears, read: read-out: Fatty acid Kd (HS) / C20:0.
The mark [12] stands for this setting: read-out: Fatty acid Kd (HS) / C12:0.

Residue numbers refer to the chain shown, from its start. Like-named read-outs stand apart in the source and are kept apart here.

In the case of `CCCCCCCCCCCCCCCC(=O)O` [C16:0, hexadecanoic acid], the Kd in experiment [1] (setting [7]) is 1.73 ± 0.08 µM; in experiment [2] (setting [7]) it was 22.6 ± 1.9 µM; in experiment [3] (setting [7]), 12.7 ± 0.7 µM; in experiment [4] (setting [7]), 5.36 ± 0.18 µM.

Consider `CCCCCCCCCCCCCCCCCC(=O)O` [C18:0, octadecanoic acid], for which the Kd in experiment [1] (setting [8]) is 4.09 ± 0.16 µM; in experiment [2] (setting [8]) it was 8.7 ± 0.5 µM; in experiment [3] (setting [8]), 4.52 ± 0.2 µM; in experiment [4] (setting [8]), 5.92 ± 0.08 µM.

Regarding `CCCCCCCCCCCCCC(=O)O` [C14:0, tetradecanoic acid], the Kd in experiment [1] (setting [9]) is 1.45 ± 0.05 µM; in experiment [2] (setting [9]) it was 39.1 ± 2.5 µM; in experiment [3] (setting [9]), 24.1 ± 0.9 µM; in experiment [5] (setting [9]), 30.7 ± 1 µM; in experiment [4] (setting [9]), 10.5 ± 0.1 µM.

Regarding `CCCCCCCCCC(=O)O` [C10:0, decanoic acid], the Kd in experiment [1] (setting [10]) was found to be 47.1 ± 2.1 µM; in experiment [2] (setting [10]), 465 ± 11 µM; in experiment [6], 1260 ± 160 µM.

As for `CCCCCCCCCCCCCCCCCCCC(=O)O` [C20:0, eicosanoic acid], the Kd in experiment [1] (setting [11]) is 4.43 ± 0.19 µM; in experiment [2] (setting [11]), 3.4 ± 0.3 µM; in experiment [3] (setting [11]), 4.41 ± 0.27 µM; in experiment [5] (setting [11]), 4.25 ± 0.21 µM; in experiment [4] (setting [11]) it was 5.27 ± 0.05 µM.

As for `CCCCCCCCCCCC(=O)O` [C12:0, dodecanoic acid], the Kd is 11.7 ± 0.43 µM in experiment [1] (setting [12]); 55 ± 4.8 µM in experiment [2] (setting [12]); 106 ± 9 µM in experiment [3] (setting [12]); 196 ± 5 µM in experiment [5] (setting [12]); 37.3 ± 2.5 µM in experiment [4] (setting [12]).
